In article PMC4774911, “Biochemical Screening of Five Protein Kinases from Plasmodium falciparum against 14,000 Cell-Active Compounds” (PLoS ONE, 2016) one finds Kd data, which are given here for 2 compounds.

Structures are written as SMILES. “And” between values parts separate entries of the source, which are not always exact repeats. Equal values may be shown once.

Assay in all cases: biochemical
Set-up in all cases: endogenous in cells; host or cells: K562 cell extract; species or system K562 (extract); replicate k of n = 2 (each experiment ID is one independent experiment; two experiment IDs per compound)
Common to all, as to details: read-out: KDapp

Assay [1] deals with AAK1 (Homo sapiens, UniProt Q2M2I8).
Chain of AAK1 (Q2M2I8 whole entry): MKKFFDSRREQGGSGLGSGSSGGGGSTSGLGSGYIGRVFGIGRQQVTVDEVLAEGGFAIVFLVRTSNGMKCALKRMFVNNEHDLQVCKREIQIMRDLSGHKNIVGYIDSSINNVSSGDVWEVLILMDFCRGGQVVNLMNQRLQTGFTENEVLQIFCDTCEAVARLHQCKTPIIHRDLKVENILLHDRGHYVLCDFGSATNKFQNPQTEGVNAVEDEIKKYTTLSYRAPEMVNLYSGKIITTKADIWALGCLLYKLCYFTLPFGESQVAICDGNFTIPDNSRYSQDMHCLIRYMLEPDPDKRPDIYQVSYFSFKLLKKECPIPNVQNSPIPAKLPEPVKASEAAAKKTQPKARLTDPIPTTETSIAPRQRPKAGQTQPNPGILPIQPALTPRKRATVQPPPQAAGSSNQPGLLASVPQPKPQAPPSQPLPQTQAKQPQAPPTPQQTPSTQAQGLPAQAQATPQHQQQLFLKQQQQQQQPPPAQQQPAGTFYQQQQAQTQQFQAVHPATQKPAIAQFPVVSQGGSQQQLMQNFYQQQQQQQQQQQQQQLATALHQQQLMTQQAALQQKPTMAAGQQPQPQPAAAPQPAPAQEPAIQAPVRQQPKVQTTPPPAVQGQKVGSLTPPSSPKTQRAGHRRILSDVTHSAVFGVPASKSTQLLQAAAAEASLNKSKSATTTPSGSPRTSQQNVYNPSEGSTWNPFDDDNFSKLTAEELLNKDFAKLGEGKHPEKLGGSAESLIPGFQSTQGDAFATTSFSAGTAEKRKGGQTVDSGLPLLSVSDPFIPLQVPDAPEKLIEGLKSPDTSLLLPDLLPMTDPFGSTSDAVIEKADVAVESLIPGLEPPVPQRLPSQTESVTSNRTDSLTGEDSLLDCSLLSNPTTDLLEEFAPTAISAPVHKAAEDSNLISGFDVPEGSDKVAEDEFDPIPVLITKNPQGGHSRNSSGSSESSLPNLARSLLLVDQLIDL
Assay [2] addresses T1, PIP4K2C (Homo sapiens, UniProt Q8TBX8).
T1 sequence (Q8TBX8 1-421): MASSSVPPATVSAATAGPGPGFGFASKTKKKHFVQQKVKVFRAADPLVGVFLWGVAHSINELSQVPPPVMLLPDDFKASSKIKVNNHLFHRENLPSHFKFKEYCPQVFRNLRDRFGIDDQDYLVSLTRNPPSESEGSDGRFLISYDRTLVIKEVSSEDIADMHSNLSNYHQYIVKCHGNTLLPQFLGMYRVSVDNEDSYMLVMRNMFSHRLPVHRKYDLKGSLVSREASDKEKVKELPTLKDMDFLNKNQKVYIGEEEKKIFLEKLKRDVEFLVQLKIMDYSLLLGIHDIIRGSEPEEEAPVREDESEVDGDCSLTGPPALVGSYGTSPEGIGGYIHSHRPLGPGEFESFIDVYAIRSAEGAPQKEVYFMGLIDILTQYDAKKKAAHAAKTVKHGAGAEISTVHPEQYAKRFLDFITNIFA

For assay [3], the target named is T2, TTK (Homo sapiens, UniProt P33981).
T2 sequence (P33981 1-857): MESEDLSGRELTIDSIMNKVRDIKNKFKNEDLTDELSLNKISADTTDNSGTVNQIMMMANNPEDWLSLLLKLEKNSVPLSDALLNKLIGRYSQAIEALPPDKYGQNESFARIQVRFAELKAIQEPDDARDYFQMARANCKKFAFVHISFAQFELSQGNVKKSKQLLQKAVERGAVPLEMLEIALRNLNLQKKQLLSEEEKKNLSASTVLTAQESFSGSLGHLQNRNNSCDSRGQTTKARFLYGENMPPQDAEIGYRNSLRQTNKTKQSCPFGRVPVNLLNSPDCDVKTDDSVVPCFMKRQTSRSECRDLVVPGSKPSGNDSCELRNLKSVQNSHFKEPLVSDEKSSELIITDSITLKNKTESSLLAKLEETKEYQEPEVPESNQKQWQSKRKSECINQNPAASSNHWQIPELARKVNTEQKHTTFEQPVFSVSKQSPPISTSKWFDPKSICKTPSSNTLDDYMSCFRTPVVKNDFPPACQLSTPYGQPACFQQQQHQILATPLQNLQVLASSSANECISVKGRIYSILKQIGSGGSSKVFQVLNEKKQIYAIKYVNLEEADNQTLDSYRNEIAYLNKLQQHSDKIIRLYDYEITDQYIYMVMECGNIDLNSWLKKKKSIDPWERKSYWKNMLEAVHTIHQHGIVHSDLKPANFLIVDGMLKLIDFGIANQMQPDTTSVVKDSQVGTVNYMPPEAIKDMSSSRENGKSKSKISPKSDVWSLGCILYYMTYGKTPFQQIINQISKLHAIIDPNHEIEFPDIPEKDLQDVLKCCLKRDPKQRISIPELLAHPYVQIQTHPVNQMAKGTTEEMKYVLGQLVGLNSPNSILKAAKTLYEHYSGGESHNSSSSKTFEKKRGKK

In assay [4] the target is TAOK1 (Homo sapiens, UniProt Q7L7X3).
Chain of TAOK1 (Q7L7X3 whole entry): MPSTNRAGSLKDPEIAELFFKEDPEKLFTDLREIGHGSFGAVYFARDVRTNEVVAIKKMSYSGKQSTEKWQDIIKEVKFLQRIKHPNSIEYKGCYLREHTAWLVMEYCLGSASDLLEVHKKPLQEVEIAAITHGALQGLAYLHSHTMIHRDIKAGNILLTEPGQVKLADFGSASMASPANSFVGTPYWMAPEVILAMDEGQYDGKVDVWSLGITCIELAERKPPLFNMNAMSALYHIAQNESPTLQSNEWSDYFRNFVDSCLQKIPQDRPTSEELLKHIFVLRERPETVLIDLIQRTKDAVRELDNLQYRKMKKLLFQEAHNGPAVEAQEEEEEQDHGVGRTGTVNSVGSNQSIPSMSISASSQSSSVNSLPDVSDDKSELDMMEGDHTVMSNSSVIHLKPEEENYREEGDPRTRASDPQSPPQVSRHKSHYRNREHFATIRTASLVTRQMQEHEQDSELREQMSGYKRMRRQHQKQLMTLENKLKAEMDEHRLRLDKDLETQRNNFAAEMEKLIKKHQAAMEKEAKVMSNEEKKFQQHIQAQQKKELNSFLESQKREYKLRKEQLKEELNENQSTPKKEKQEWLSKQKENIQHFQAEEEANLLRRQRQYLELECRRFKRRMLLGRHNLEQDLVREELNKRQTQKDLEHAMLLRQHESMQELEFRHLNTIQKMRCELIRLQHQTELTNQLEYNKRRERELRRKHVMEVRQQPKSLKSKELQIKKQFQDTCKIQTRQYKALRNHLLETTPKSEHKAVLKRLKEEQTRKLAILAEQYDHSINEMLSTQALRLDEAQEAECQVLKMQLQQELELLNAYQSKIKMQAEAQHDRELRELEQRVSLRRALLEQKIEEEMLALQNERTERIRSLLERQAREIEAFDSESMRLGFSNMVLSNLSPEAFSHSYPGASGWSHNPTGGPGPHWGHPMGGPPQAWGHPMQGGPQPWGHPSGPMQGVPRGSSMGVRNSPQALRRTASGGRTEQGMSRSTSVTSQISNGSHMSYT
Assay [5] deals with T3, TNK1 (Homo sapiens, UniProt Q13470).
T3 sequence (Q13470 1-666): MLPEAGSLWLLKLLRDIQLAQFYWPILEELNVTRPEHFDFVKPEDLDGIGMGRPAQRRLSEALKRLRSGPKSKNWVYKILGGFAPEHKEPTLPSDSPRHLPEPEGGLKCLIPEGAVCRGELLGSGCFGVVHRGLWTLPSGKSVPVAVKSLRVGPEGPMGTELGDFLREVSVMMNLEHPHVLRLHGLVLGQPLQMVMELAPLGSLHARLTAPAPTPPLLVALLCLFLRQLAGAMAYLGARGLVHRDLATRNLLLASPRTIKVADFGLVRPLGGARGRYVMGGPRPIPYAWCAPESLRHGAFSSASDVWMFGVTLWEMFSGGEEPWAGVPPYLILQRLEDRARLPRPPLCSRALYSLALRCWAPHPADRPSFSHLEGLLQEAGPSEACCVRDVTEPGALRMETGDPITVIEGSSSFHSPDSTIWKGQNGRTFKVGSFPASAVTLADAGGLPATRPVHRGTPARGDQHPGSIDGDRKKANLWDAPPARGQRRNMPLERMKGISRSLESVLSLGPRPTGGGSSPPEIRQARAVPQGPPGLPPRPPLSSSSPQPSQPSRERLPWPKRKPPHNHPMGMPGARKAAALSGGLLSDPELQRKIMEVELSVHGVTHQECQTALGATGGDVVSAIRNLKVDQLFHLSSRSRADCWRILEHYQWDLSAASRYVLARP

For `CN1CCN(c2ccc(Nc3ncc(C#N)c(Nc4ccccc4C(N)=O)n3)cc2)CC1.Cl` [TCMDC-134116], the Kd in assay [1] is 36.7 nM; in assay [2], 691 nM and 713 nM; in assay [3] it was 439 nM and 357 nM.

Take `CN(C)CC(O)COc1ccc(Nc2ncc([N+](=O)[O-])c(Nc3ccccc3O)n2)cc1.O=C(O)C(F)(F)F` (centres unmarked) [TCMDC-141399]: the Kd in assay [4] is 4300 nM; in assay [5], 1150 nM and 464 nM.
